The results in this text go back to patent publication US20100305120A1, “COMPOUNDS FOR TREATING MUSCULAR DYSTROPHY” (BIOMARIN IGA LIMITED, priority 2008, published 2010).

For the first experiment, the system named is Utrophin A promoter linked to a luciferase reporter gene. The experiment in a line: Luciferase reporter assay (murine H2K cells), H2K/mdx/Utro A reporter cell line. The class given is cell-based. Conditions: 48 h; test compound concentration 0.1 μM; mdx mouse H2K Utrophin A reporter cells; read-out: Activity (luciferase level relative to control). Here is the method: Luciferase Reporter Assay (Murine H2K Cells)
The cell line used for the screen is an immortalized mdx mouse H2K cell line that has been stably transfected with a plasmid containing ≈5 kb fragment of the Utrophin A promoter including the first untranslated exon linked to a luciferase reporter gene.
Under conditions of low temperature and interferon containing media, the cells remain as myoblasts. These are plated into 96 well plates and cultured in the presence of compound for three days. The level of luciferase is then determined by cell lysis and reading of the light output from the expressed luciferase gene utilising a plate luminometer.
Luciferase Assay for 96 Well Plates
The H2K/mdx/Utro A reporter cell line cells were plated out into 96 well plates (Falcon 353296, white opaque) at a density of approximately 5000 cells/well in 190 μl normal growth medium. The plates were then incubated at 33° C. in the presence of 10% CO2 for 24 hrs.
Compounds were dosed by adding 10 μl of diluted compound to each well giving a final concentration of 10 μM (where a different final concentration was required, the amount of compound solution added was amended accordingly). The plates were then incubated for a further 48 hrs. Cells were then lysed in situ following the manufacture's protocols (Promega Steady-Glo Luciferase Assay System(E2520). Then counted for 10 seconds using a plate luminometer (Victor1420).
Compounds for screening were stored at −20° C. as 10 mM stocks in 100% DMSO until required.
Biological activity as assessed using the luciferase reporter assay in murine H2K cells, and the results are shown in Table 1, which also lists the concentration of the test compound solution in μM.
On the technique in general: A reporter such as luciferase makes a cellular process visible.
As to `CS(=O)(=O)c1ccc(Cn2nc(C(=O)Nc3ccc4c(c3)OCO4)c3c2CCCC3)cc1` [Compound 149, N-(benzo[d][1,3]dioxol-5-yl)-1-(4-(methylsulfonyl)benzyl)-4,5,6,7-tetrahydro-1H-indazole-3-carboxamide], the activity at 0.1 µM is < 200%.

Still in this experiment, the particulars now being: 48 h; test compound concentration 10 μM; mdx mouse H2K Utrophin A reporter cells; read-out: Activity (luciferase level relative to control).
For `CC(C)c1nc(Cn2nc(C(=O)Nc3ccc4c(c3)OCO4)c3ccccc32)no1` [Compound 154, N-(benzo[d][1,3]dioxol-5-yl)-1-((5-isopropyl-1,2,4-oxadiazol-3-yl)methyl)-1H-indazole-3-carboxamide], the activity at 10 µM was < 200%.

On to `O=C(Nc1ccc2c(c1)OCO2)c1nn(Cc2ccc3c(c2)OCO3)c2ccccc12` [Compound 123, N-(benzo[d][1,3]dioxol-5-yl)-1-(benzo[d][1,3]dioxol-5-ylmethyl)-1H-indazole-3-carboxamide], for which the activity at 10 µM fell in the range of 201 to 300%.

`COc1cccc(OCc2ccc(Cn3nc(NC(=O)NCc4ccccc4F)c4ccccc43)cc2)c1` [Compound 28, 1-(2-fluorobenzyl)-3-(1-(4-((3-methoxyphenoxy)methyl)benzyl)-1H-indazol-3-yl)urea]: the activity at 10 µM lay within 201 to 300%. Consider `O=C(Nc1ccc2c(c1)OCO2)c1nn(Cc2ccc(C(=O)N3CCCC3)cc2)c2ccccc12` [Compound 142, N-(benzo[d][1,3]dioxol-5-yl)-1-(4-(pyrrolidine-1-carbonyl)benzyl)-1H-indazole-3-carboxamide], for which the activity at 10 µM was 201 to 300%. As for `COc1cc(NC(=O)Nc2nn(Cc3cc4c(cc3Cl)OCO4)c3ccccc23)cc(OC)c1` [Compound 52, 1-(1-((6-chlorobenzo[d][1,3]dioxol-5-yl)methyl)-1H-indazol-3-yl)-3-(3,5-dimethoxyphenyl)urea], the activity at 10 µM was < 200%. On the same count and under the same terms, in the case of `O=C(Nc1ccc(N2CCCCC2)cc1)c1nn(CCCOc2ccccc2)c2ccccc12` [Compound 14, 1-(3-phenoxypropyl)-N-(4-(piperidin-1-yl)phenyl)-1H-indazole-3-carboxamide] it was 301 to 400%. As to `O=C(Nc1nccs1)c1nn(CCCOc2ccccc2)c2ccccc12` [Compound 16, 1-(3-phenoxypropyl)-N-(thiazol-2-yl)-1H-indazole-3-carboxamide], the activity at 10 µM was > 401%. Same read-out and setting: then `CN(C)S(=O)(=O)c1ccc(Cn2nc(C(=O)Nc3ccc4c(c3)OCO4)c3ccccc32)cc1` [Compound 128, N-(benzo[d][1,3]dioxol-5-yl)-1-(4-(N,N-dimethylsulfamoyl)benzyl)-1H-indazole-3-carboxamide], with 201 to 300%. Take `O=C(NCc1ccco1)Nc1nn(Cc2cc3c(cc2Cl)OCO3)c2ccccc12` [Compound 55, 1-(1-((6-chlorobenzo[d][1,3]dioxol-5-yl)methyl)-1H-indazol-3-yl)-3-(furan-2-ylmethyl)urea]: the activity at 10 µM is < 200%.

For `CC(C)c1ccc(NC(=O)c2nn(Cc3ccc(C(=O)N(C)C)cc3)c3ccccc23)cc1` [Compound 139, 1-(4-(dimethylcarbamoyl)benzyl)-N-(4-isopropylphenyl)-1H-indazole-3-carboxamide], the activity at 10 µM is < 200%. The same measure, in the same setting: in the case of `CS(=O)(=O)c1ccc(Cn2nc(C(=O)Nc3ccc(Cl)cc3)c3ccccc32)cc1` [Compound 89, N-(4-chlorophenyl)-1-(4-(methylsulfonyl)benzyl)-1H-indazole-3-carboxamide] it was 201 to 300%; in that of `COc1ccc(CCNC(=O)Nc2nn(Cc3cc4c(cc3Cl)OCO4)c3ccccc23)cc1` [Compound 37, 1-(1-((6-chlorobenzo[d][1,3]dioxol-5-yl)methyl)-1H-indazol-3-yl)-3-(4-methoxyphenethyl)urea], < 200%. Consider `CC(C)c1nsc(NC(=O)c2nn(Cc3ccc(S(C)(=O)=O)cc3)c3ccccc23)n1` [Compound 98, N-(3-isopropyl-1,2,4-thiadiazol-5-yl)-1-(4-(methylsulfonyl)benzyl)-1H-indazole-3-carboxamide], for which the activity at 10 µM was < 200%. Still for that read-out and setting: then `COc1cccc(OCc2ccc(Cn3nc(NC(=O)NCc4ccccc4OC)c4ccccc43)cc2)c1` [Compound 44, 1-(2-methoxybenzyl)-3-(1-(4-((3-methoxyphenoxy)methyl)benzyl)-1H-indazol-3-yl)urea], with < 200%. For `CS(=O)(=O)c1ccc(Cn2nc(-c3nc4ccc(Cl)cc4o3)c3ccccc32)cc1` [Compound 95, 6-chloro-2-(1-(4-(methylsulfonyl)benzyl)-1H-indazol-3-yl)benzo[d]oxazole], the activity at 10 µM was < 200%. On to `COc1ccc(OC)c(NC(=O)Nc2nn(Cc3ccc(COc4ccc5c(c4)OCO5)cc3)c3ccc(C(F)(F)F)cc23)c1` [Compound 2, 1-(1-(4-((benzo[d][1,3]dioxol-5-yloxy)methyl)benzyl)-5-(trifluoromethyl)-1H-indazol-3-yl)-3-(2,5-dimethoxyphenyl)urea], for which the activity at 10 µM is < 200%.

Take `CCc1ccc(Cn2nc(C(=O)Nc3ccc4c(c3)OCCO4)c3ccccc32)cc1` [Compound 158, N-(2,3-dihydrobenzo[b][1,4]dioxin-6-yl)-1-(4-ethylbenzyl)-1H-indazole-3-carboxamide]: the activity at 10 µM is 201 to 300%. Regarding `CC(C)c1ccc(NC(=O)c2nn(Cc3ccc(C(=O)N4CCOCC4)cc3)c3ccccc23)cc1` [Compound 19, N-(4-isopropylphenyl)-1-(4-(morpholine-4-carbonyl)benzyl)-1H-indazole-3-carboxamide], the activity at 10 µM was > 401%. As to `COC(=O)c1ccc(NC(=O)Nc2nn(Cc3ccc(COc4cccc(OC)c4)cc3)c3ccccc23)cc1` [Compound 11, methyl 4-(3-(1-(4-((3-methoxyphenoxy)methyl)benzyl)-1H-indazol-3-yl)ureido)benzoate], the activity at 10 µM was < 200%. Regarding `CN(C)C(=O)c1ccc(Cn2nc(C(=O)Nc3ccc4c(c3)OCO4)c3ccccc32)cc1` [Compound 117, N-(benzo[d][1,3]dioxol-5-yl)-1-(4-(dimethylcarbamoyl)benzyl)-1H-indazole-3-carboxamide], the activity at 10 µM is 201 to 300%. Same read-out and setting: then `O=C(NCC1CCCO1)c1nn(Cc2ccc(C(=O)N3CCOCC3)cc2)c2ccccc12` (centres unmarked) [Compound 72, 1-(4-(morpholine-4-carbonyl)benzyl)-N-((tetrahydrofuran-2-yl)methyl)-1H-indazole-3-carboxamide], with < 200%; and `CC(C)(C)c1ccc(Cn2nc(C(=O)Nc3ccc4c(c3)OC(F)(F)O4)c3ccccc32)cc1` [Compound 48, 1-(4-tert-butylbenzyl)-N-(2,2-difluorobenzo[d][1,3]dioxol-5-yl)-1H-indazole-3-carboxamide], with < 200%; and `CN(Cc1ccccc1)C(=O)c1ccc(Cn2nc(C(=O)Nc3ccc(C(F)(F)F)cc3)c3ccccc32)cc1` [Compound 20, 1-(4-(benzyl(methyl)carbamoyl)benzyl)-N-(4-(trifluoromethyl)phenyl)-1H-indazole-3-carboxamide], with < 200%. On to `O=C(Nc1ccc2c(c1)OCCO2)c1nn(Cc2ccc(C(=O)N3CCOCC3)cc2)c2cc(F)ccc12` [Compound 162, N-(2,3-dihydrobenzo[b][1,4]dioxin-6-yl)-6-fluoro-1-(4-(morpholine-4-carbonyl)benzyl)-1H-indazole-3-carboxamide], for which the activity at 10 µM was 201 to 300%.

Consider `O=C(Nc1ccc(N2CCCCC2)cc1)c1nn(CCOc2ccc(F)cc2)c2ccccc12` [Compound 43, 1-(2-(4-fluorophenoxy)ethyl)-N-(4-(piperidin-1-yl)phenyl)-1H-indazole-3-carboxamide], for which the activity at 10 µM was < 200%. For the compound `COc1ccc(CCNC(=O)Nc2nn(Cc3ccc(C(F)(F)F)cc3)c3ccccc23)cc1OC` [Compound 73, 1-(3,4-dimethoxyphenethyl)-3-(1-(4-(trifluoromethyl)benzyl)-1H-indazol-3-yl)urea], the activity at 10 µM is < 200%.

For the compound `CC(C)(C)c1ccc(C(=O)n2nc(C(=O)Nc3ccc4c(c3)OCO4)c3ccccc32)cc1` [Compound 124, N-(benzo[d][1,3]dioxol-5-yl)-1-(4-tert-butylbenzoyl)-1H-indazole-3-carboxamide], the activity at 10 µM lay in the range of 301 to 400%.

As for `O=C(Nc1ccc2c(c1)OCO2)c1nn(CCOc2ccc(F)cc2)c2ccccc12` [Compound 46, N-(benzo[d][1,3]dioxol-5-yl)-1-(2-(4-fluorophenoxy)ethyl)-1H-indazole-3-carboxamide], the activity at 10 µM is < 200%. Turning to `O=C(Nc1ccc(N2CCCCC2)cc1)c1nn(Cc2ccc(-c3ccccc3)cc2)c2ccccc12` [Compound 69, 1-(biphenyl-4-ylmethyl)-N-(4-(piperidin-1-yl)phenyl)-1H-indazole-3-carboxamide], the activity at 10 µM was < 200%.

With `Cc1cccc(NC(=O)Nc2nn(Cc3ccc(C(F)(F)F)cc3)c3ccccc23)c1` [Compound 15, 1-m-tolyl-3-(1-(4-(trifluoromethyl)benzyl)-1H-indazol-3-yl)urea], the activity at 10 µM is < 200%. Same read-out and setting: then `CC(C)c1ccc(NC(=O)c2nn(CCOc3ccc(F)cc3)c3ccccc23)cc1` [Compound 60, 1-(2-(4-fluorophenoxy)ethyl)-N-(4-isopropylphenyl)-1H-indazole-3-carboxamide], with < 200%.
